Experiments:
[1] = test system: p53; test: Western blot for p53 and downstream targets in MCF7 cells treated with peptides; assay type: cell-based, human; conditions: MCF7 cells
[2] = test system: RKO cells; test: RKO cell colony formation assay (peptides); assay type: cell-based, human; conditions: 5 μM, 3.125 ng/mL doxorubicin 48 hours (FIG. 34D)
Description: For the experiments shown in FIG. 34D, RKO cells were seeded on a 6-well plate at a seed density of 2×10^3 cells per well. The following day the cells were treated with 5 μM Pen-Ctrl, 5 μM Pen-Pep23, or 5 μM Pen-Pep8. The following day, 3.125 ng/mL doxorubicin was added to the cells for 48 hours. Subsequently, the cell media was changed every 3 days until colonies were visible. The cells were fixed and stained with crystal violet.

[3] = test system: HaCaT cells; test: HaCaT cell colony formation assay; assay type: cell-based; conditions: HaCaT cells (mutant p53); 10 μM for 20 minutes then 0.5 ng/mL doxorubicin 18 hours (FIG. 37D)
Description: For the experiments shown in FIG. 37D, HaCaT and MiaPaCa2 cells were grown in 6-well plates at 500 cells per well. The following day, 10 μM Pen-Ctrl (SEQ ID NO:10), Pen-Pep23 (SEQ ID NO:9), or Pen-Pep8 (SEQ ID NO:50) were added to the cells for 20 minutes followed by treatment with 0.5 ng/mL doxorubicin (for HaCaT cells) or 0.25 ng/mL doxorubicin (for miaPaCa2 cells) for 18 hours, then the media was changed to fresh DMEM. After colonies formed they were fixed (i.e., using 7:1 MeOH:glacial acetic acid) and stained with crystal violet.

[4] = test system: MCF7 tumor spheres; test: MCF7 tumor sphere assay; assay type: cell-based, human; conditions: MCF7 cells; 5 μM; 6.25 ng/mL doxorubicin; 7 days (FIGS. 34E, 34F)
Description: For the experiments shown in FIG. 34E, MCF7 cells were plated at a density of 20,000 cells per well using 2 mL Mammocult media in 6-well ultra-low adherent plates. The following day, cells were treated with Pen-Ctrl or Pen-Pep8 at a concentration of 5 μM. Peptides were added to each well for 20 minutes followed by 6.25 ng/mL doxorubicin. Cells were grown for 7 days and then the number of tumor spheres that were larger than 50 μm in diameter were counted (i.e., 20 10× photos were randomly taken and tumor spheres counted from the digital photos). For the graph shown in FIG. 34F, statistical analysis was performed using the student's t-test (n=3; *p≤0.05).
For the experiments shown in FIG. 36C, MCF7 cells were plated at a density of 20,000 cells per well using 2 mL Mammocult media in 6-well ultra-low adherent plates. The following day, cells were treated with 150 nM Cyc-Ctrl or Cyc-Pep8 (SEQ ID NO:5). 150 nM Cyc-Ctr/Pep8 was incubated in 100 μL serum-free DMEM with 3 μg PEP1 for 25 minutes before being added to the cells. After 20 minutes, 3.125 ng/mL doxorubicin was added to the cells for 7 days. Cells were grown for 7 days and then tumor spheres were counted that were larger than 50 μm in diameter (i.e., 20 10× photos were randomly taken and tumor spheres were counted from the digital photos).

[5] = test system: RKO tumor xenograft; test: RKO tumor xenograft model in nude mice; assay type: in vivo
Description: 6-week-old female nude mice were used for the xenograft study (FIG. 35A). 1×10^6 RKO cells in a 1:1 mixture of matrigel:DMEM (serum-free) were injected into the right flank of the nude mice. After tumors had grown to a size of about 100 mm^3, treatment with either Pen-Ctrl or Pen-Pep8 (5 μM in 50 μL sterile PBS) was administered by intratumoral injection every 2 days for 2 weeks. After treatment, the animals were sacrificed and tumors were excised, measured, and weighed followed by being flash frozen (n=6 for each group). Xenograft volume over the course of treatment and final tumor weight after the animals were sacrificed are shown in FIGS. 35B and 35C, respectively. Furthermore, pieces of the frozen xenografts were cut using a sterile scalpel and then the tumor tissue was lysed and lysate was run on a 10% SDS-PAGE gel followed by Western blotting for Puma, p53, and actin.

[6] = test system: p53 (mutant); test: Western blot for mutant p53 in miaPaCa2 cells treated with Pen-Pep8; assay type: cell-based; conditions: 2.5 μM for 30 minutes then 6.25 ng/mL doxorubicin 18 hours (FIG. 37C)
Description: For the experiments shown in FIG. 37C, 2×10^5 miaPaCa2 cells per well were plated the day before in a 6-well plate. The following day, the cells were treated with 2.5 μM Pen-Ctrl (SEQ ID NO:10) or Pen-Pep8 (SEP ID NO:50) for 30 minutes then treated with 6.25 ng/mL doxorubicin for 18 hours. The following the day, the cells were harvested with 350 μL 1×SDS-lysis buffer and 20 μL of lysate was loaded per well onto a 10% SDS-PAGE gel followed by Western blot for total eIF4E, p-eIF4E (Ser209), p53 (mutant), and actin.

RQIKIWFQNRRMKWKKYPYAASPA [Pen-Pep8, Penetratin fused to Pep8]
p53 expression with low dose doxorubicin (Western blot) ([1]; 2.5 μM for 20 minutes then 6.25 ng/mL doxorubicin 18 hours (FIG. 34B)): robust p53 expression | p53 expression (Western blot) ([1]; 2.5 μM, 18 hours (FIG. 32C)): induced p53 expression | p53 protein levels (Western blot) ([1]; 2.5 μM, 18 hours (FIG. 37B)): increased p53 protein levels | colony formation, sensitization to low-dose doxorubicin [2]: sensitized MCF7 and RKO cells to low-dose doxorubicin | colony formation, sensitization to low-dose doxorubicin [3]: sensitized to low-dose doxorubicin | number of tumor spheres larger than 50 μm in diameter, sensitization to low dose doxorubicin [4]: sensitized cells to low dose doxorubicin | RKO tumor cell growth in a xenograft model (tumor volume, tumor weight) ([5]; female nude mice, 5 μM in 50 μL PBS, intratumoral injection every 2 days for 2 weeks, versus Pen-Ctrl (FIGS. 35A-35C)): inhibited RKO tumor cell growth | p53 and Puma protein expression in xenograft tumors (Western blot) ([5]; lysate from RKO xenograft tumors after treatment, versus Pen-Ctrl (FIG. 35D)): increased p53 protein expression, as well as its target, Puma | mutant p53 expression (Western blot) [6]: decreased mutant p53 expression

Reference: patent US11505574B2, “Modulation of P53 for the treatment of cancer” (THE REGENTS OF THE UNIVERSITY OF CALIFORNIA, priority 2016, dated 2022)
